Measurements published in patent US20120128788A1, “COLLAGEN PRODUCTION ENHANCER” (SOFSERA CORPORATION, priority 2009, published 2012).
“And” between values parts separate entries of the source, which are not always exact repeats. Equal values may be shown once.

Test system: Fibroblasts of a normal human
Assay: Test for determining activity of fibroblast to enhance type I collagen production (ELISA of culture medium)
Type: cell-based
Settings: positive control, 25 μM, 24 h, n=6
Procedure: Fibroblasts of a normal human were cultured for 24 hours in 0.5% FBS-DMEM culture medium containing the test sample, and the amount of collagen in the culture medium was quantified by ELISA. The test was carried out by repeating six times for each condition (n=6). As a positive control (P.C.), magnesium ascorbyl phosphate (VCPMg) was used. The test samples employed were the calcined hydroxyapatite that is produced in the Production Example 1 and the non-calcined hydroxyapatite that is used in the Production Example 2.

Compound: O=C1O[C@H]([C@@H](O)CO)C([O-])=C1OP(=O)([O-])[O-].O=C1O[C@H]([C@@H](O)CO)C([O-])=C1OP(=O)([O-])[O-].[Mg+2].[Mg+2].[Mg+2] [VC-PMg, magnesium ascorbyl phosphate]
- Collagen Mean ± SD: 24.28 ± 1.06 μg/mg protein and 19.75 ± 1.11 μg/mg protein
